Earlier results, collected in patent US7205008B2, “Methods of treating Alzheimer's disease and other amyloidoses using Hypericum perforatum and derivatives thereof” (ProteoTech, Inc., priority 2000, dated 2007).

Cc1cc(O)c2c(=O)c3c(O)cc(O)c4c5c(O)cc(O)c6c(=O)c7c(O)cc(C)c8c1c2c(c34)c(c78)c65 [hypericin]
fraction of hypericin absorbed (after swallowing a pill of Hypericum perforatum, estimated): about 20% | time it lasts in the bloodstream (dose of 0.75 mg of hypericin): more than a day
